From patent publication US12083134B2, “Anacardic acid for neural repair” (Vanderbilt University, priority 2018, dated 2024)

How the values were obtained:
MBP in OPCs = test: Western blot of MBP in OPCs cultured with AA for 10 days; type: cell-based, rat
Protocol: To further verify the ability of AA to induce MBP protein synthesis, 4×10^6 OPCs were cultured in poly-D lysine coated culture dishes with and without AA for 10 days. The AA concentrations that were studied were as follows: 1, 2.5, 5, 7.5, and 10 μM. The growth medium was changed every three days. […] Upon culture in vitro, OPCs differentiated and became myelin expressing cells, a process which took about 7-14 days.

IL-33 protein in OPCs = test: Western blot of IL-33 protein in OPCs (nuclear extracts) cultured with AA; type: cell-based, rat; details: for increase in the protein level of IL-33: OPCs
Protocol: FIG. 5 (top) provides the results of Western blot studies showing increased expression of IL-33 in the presence of AA in OPCs. […] Because IL-33 is mainly in the nucleus, the Wester blots were done with nuclear extracts and Lamin was used as the control.
In addition, at a dose of 2.5 μM of AA, there was a 1.8 fold increase in the protein level of IL-33, and at a dose of 7.5 μM of AA, there was a 3.1 fold increase in the protein level of IL-33 (FIG. 5).

OPCs = test: Maturation of OPCs to mature oligodendrocytes, MBP staining after 14 days culture with AA; type: cell-based, rat; details: AA 1 μM
Protocol: FIG. 6 provides images showing the increased differentiation of OPCs to mature oligodendrocytes following culture with AA (Ana). OPCs were isolated from rat pups and were cultured with AA where 1 μM of AA was added to the culture every other day for 14 days. At the end of the experiment, the cells were stained and the amount of MBP was assessed using ImagJ software.
The expression of MBP, a marker for myelin maturation in OPCs, was investigated in the presence and absence of AA (1 μM) following culture with AA for 14 days.

[1] = system: cuprizone induced demyelination; test: Cuprizone induced model of demyelination, myelin staining of corpus callosum; type: in vivo, mice
Protocol: Mice were administered cuprizone for nine weeks, and starting at week 7, mice were treated with 12.5 mg/kg AA daily for three additional weeks. Mice were sacrificed at the end of week 9. […] The data are expressed as the mean pixel intensity of LFB staining normalized to controls measured at two non-overlapping regions of the corpus callosum.
FIG. 11 provides images showing the staining of myelin using LFB stain (top panel) and immunostaining with anti MBP antibodies (bottom panel) in coronal sections of the brain in a 9-week study of naïve (left), cuprizone treated (middle), and cuprizone+AA treated (12.5 mg/kg/day) mice where the cuprizone+AA treated mice were treated with AA in weeks 7-9 of the study. The Y axis represents the mean pixel intensity of staining normalized to controls for LFB and immunostaining for MBP.
The cuprizone induced model of demyelination is a model for toxic demyelination. Torkildsen et al., Acta Neurol Scand Suppl. 188:72-6 (2008); Bai et al., Exp Neurol, 283(Pt A): 330-40 (2016). Cuprizone induces extensive demyelination in large white matter tracts of the CNS. Because the corpus callosum is the largest white matter tract in the brain, it is often used to study demyelination/remyelination in the cuprizone model. In the cuprizone model, animals are fed with cuprizone that causes cell death of oligodendrocytes. […] Deshmukh et al., Nature, 502(7471):327-32 (2014); Magalon et al., Ann Neurol, 71(2):213-26 (2012). Since the model is non-immune mediated, neuro-reparative therapies which promote remyelination can be tested without the interference of markers of inflammation. Lassmann and Bradl, Acta Neuropathol, 133(2):223-44 (2017).
The efficacy of any potential drug is only apparent for a short period of time after cuprizone withdrawal and before the natural process of remyelination catches up. Following cuprizone withdrawal, there is complete remyelination after 6 weeks. Thus, a study was conducted where mice were administered cuprizone in their chow for nine weeks and either AA or a vehicle were administered with the cuprizone starting at 7 weeks. Previous studies have shown that chow mixed with 0.2% cuprizone causes wide spread demyelination and demyelination is seen in the corpus callosum after 6 to 8 weeks on cuprizone. At the beginning of week 7, mice received 12.5 mg/kg of AA dissolved in DMSO sc daily for an additional three weeks. Control mice received an equal volume of DMSO (vehicle). Equal numbers of mice (5/group) were sacrificed and the amount of myelin was determined by staining with luxol fast blue (“LFB”) (chemical stain for myelin) or by staining with anti MBP antibodies at the end of weeks 7, 8 and 9. […]

[2] = system: experimental allergic encephalitis (EAE); test: EAE prevention, AA from day of immunization with MOG peptide; type: in vivo, mice
Description: In two experiments, only 2 of 10 mice in the AA treated group developed grade 1 paralysis. In the vehicle treated group, 9 out of 10 mice developed paralysis. Clinical scoring: 1=limp tail, 2=ataxia of gait and paralysis of one or more limbs, 3=paralysis of two or more limbs, 4=weakness of all limbs, 5=death.
The data is expressed as a percent area of myelin loss in three non-contiguous axial sections of the spinal cord; p<0.01 between treated and untreated groups when AA is given beginning day 0 or from the onset of symptoms.
Experimental allergic encephalitis (“EAE”) is an autoimmune inflammatory demyelinating disease of the CNS. For experimental purposes, the disease is induced in animals by immunizing the animals with myelin antigens in adjuvant. […] Ten to twelve days after immunization, paralysis develops in the animals. The degree of paralysis is scored as follows: 1=limp tail, 2=ataxia of gait and paralysis of one or more limbs, 3=paralysis of two or more limbs, 4=weakness of all limbs, 5=death.
The EAE model has been used extensively to examine the efficacy of potential drugs for MS therapy. The efficacy of AA in preventing EAE in mice immunized with MOG peptide in adjuvant was tested. A total of 10 mice were administered 0.25 mg/kg of AA dissolved in DMSO (vehicle) and a total of 10 mice were administered the vehicle alone by intraperitoneal injection daily for the entire length of the study (28 days). AA was obtained from commercial sources. Nine of 10 animals in the vehicle group developed paralytic signs, with a mean maximal paralytic score of 2.66. Two of 10 animals that received AA developed paralysis which was scored as a grade 1 paralysis (P<0.01 treated versus placebo). There was also significant decrease in the loss of myelin in the […]. (FIG. 13).
To confirm that the clinical scores calculated in the EAR experiments reflect pathology, the extent of demyelination in the cervical, thoracolumbar cord of each mouse in the vehicle treated and AA treated groups was examined. […]

CCCCCCCCCCCCCCCc1cccc(O)c1C(=O)O [AA, anacardic acid]
increase in the expression of MBP (image analysis, FIG. 4) (MBP in OPCs; OPCs cultured with AA, concentration not given): 2.4 fold
level of MBP (Western blot) (MBP in OPCs; OPCs, AA 1, 2.5, 5, 7.5 and 10 μM, 10 days): increased the level of MBP in a dose dependent manner
increase in IL-33 protein expression (image analysis of gels, FIG. 5) (IL-33 protein in OPCs; OPCs nuclear extracts, Lamin control, concentration not given): 1.6 fold
increase in the protein level of IL-33 (IL-33 protein in OPCs; AA 2.5 μM): 1.8 fold
increase in the protein level of IL-33 (IL-33 protein in OPCs; AA 7.5 μM): 3.1 fold
increase in the expression of MBP vs normal growth medium (OPCs): 2.1 fold
number of oligodendrocytes vs vehicle treated mice ([1]; AA 12.5 mg/kg/day): no difference
increase in LFB staining of corpus callosum vs control mice ([1]; end of week 9, three weeks of AA 12.5 mg/kg sc daily, P<0.02): 10%
expression of myelin vs control mice ([1]; end of weeks 7 and 8, one or two weeks of AA 12.5 mg/kg sc daily): no differences
increase in MBP staining (anti MBP antibodies) vs control mice ([1]; week 9, AA 12.5 mg/kg/day weeks 7-9, P=0.02): 17%
demyelination in the spinal cord ([2]; AA 0.25 mg/kg daily from day 0, vehicle 9.9+/−4.0 percent): no demyelination
animals that developed paralysis ([2]; AA 0.25 mg/kg ip daily for 28 days from immunization, vehicle nine of 10, P<0.01): 2 of 10 and Two of 10
grade of paralysis (clinical score 1-5) ([2]; AA 0.25 mg/kg ip daily from immunization, affected animals): 1
